Molecules are shown by their SMILES.

Common to all, as to format: cell-based, human
In experiment [1] the test system is HCT-116 cells. Briefly: Cell morphology by light microscopy, HCT-116. The conditions noted are these: HCT-116, 10 and 25 μM, 72 h. The procedure: (§1) The evaluation of changes in cell morphology has been performed after incubation with compounds 24 and 31 for 72 h using light microscopy.
(§2) The HeLa, MCF-7, and HCT-116 cells were seeded on 24-well plates (5 × 10^4/per well) in 1 mL of medium for 24 h. After that time, cells were treated with 24 and 31 for next 72 h. Cells were treated with 10 µM, 25 µM of 24, or 25 µM of 31. As a control, non-treated cells were used. Morphology of cells was observed after 72 h using light microscope Olympus IX83.

Experiment [2] deals with HeLa cells. Briefly: Cell cycle distribution by flow cytometry, HeLa. The conditions noted are these: 72 h; for cells in sub-G1 phase: control 5.08%. The procedure: (§3) The cell cycle distribution was measured by flow cytometry analysis after incubation of MCF-7, HeLa, and HCT-116 with compounds 24 and 31 for 72 h.
On the technique in general: Flow cytometry measures light scatter and fluorescence of single cells or particles in a stream.

The test system of experiment [3] is MCF-7, HeLa and HCT-116 cells. Briefly: MTT assay, mean over three tested cancer cell lines. The procedure:
The cytotoxic activity of the compounds 8–33 has been evaluated in MTT assays against three human cancer cell lines MCF-7 (breast cancer), HeLa (cervical cancer), and HCT-116 (colon cancer) and it was expressed as IC50 values in μM (Table 1).
Although the highest activity of the compounds with hydroxyl groups as the R^2 residue was against colon cancer cells, the inhibition of the growth of breast cancer cells was also remarkable.
Cell viability was determined using the MTT (3-(4,5-dimethylthiazol-2-yl)-2,5-diphenyl-tetrazoliumbromide) assay. Stock solutions of the studied compounds were prepared in 100% DMSO. […] Cells were seeded in 96-well plates at a density of 5 × 10^3 cells/well and treated for 72 h with the examined compounds in the concentration range 1–100 μM (1, 10, 25, 50, and 100 μM). Following treatment, MTT (0.5 mg/mL) was added to the medium and cells were further incubated for 2 h at 37 °C. Cells were lysed with DMSO and the absorbance of the formazan solution was measured at 550 nm with a plate reader (1420 multilabel counter, Victor, Jügesheim, Germany). […] The experiment was performed in triplicate. Values are expressed as the mean ± SD of at least three independent experiments.
(Tetrazolium assays rely on reduction of a dye to a coloured formazan, in cell work by metabolically active cells.)

Experiment [4] has as its system HCT-116 cells. Briefly: Cell cycle distribution by flow cytometry, HCT-116. Conditions: for cells in sub-G1 phase: 72 h, control 1.15%. The procedure: as §3
In experiment [5] the test system is HeLa cells. Briefly: Cell morphology by light microscopy, HeLa. The conditions noted are these: 10 and 25 μM, 72 h. The procedure:
as §1, §2

In experiment [6] the test system is MCF-7 cells. Nature of the experiment: Phosphatidylserine translocation (Annexin V-FITC/PI), MCF-7. The source says:
(§4) One of the early indicators of apoptosis is the exposure of phosphatidylserine residues on the cell’s surface. Annexin V has a high affinity to phosphatidylserine and, as a conjugate to fluorescein isothiocyante (FITC), is widely used for detection of early apoptotic cells using flow cytometry. Detection of late-apoptotic or necrotic cells is achieved by using propidium iodide (PI) stain. Based on the obtained fluorescence, four subpopulations were found: PI-low/FITC-low (live cells), PI-high/FITC-low (necrotic cells), PI-low/FITC-high (early apoptotic cells), and PI-high/FITC-high (late apoptotic cells).
(§5) Analysis was performed using FITC-conjugated annexin-V (Annexin V-FITC Apoptosis Kit I, BD Biosciences, San Jose, CA, USA) according to the manufacturer’s instructions (BD Biosciences) as described previously. HeLa, MCF-7, and HCT-116, after seeding to 24-well plates (5 × 10^4/per well) and 24 h incubation, were treated for 72 h with 24 or 31 (10/25 µM or 25 µM concentration respectively). Following treatment, cells were washed in PBS, centrifuged, and then resuspended in a binding buffer. Afterward, the cells were incubated for 15 min at 37 °C with FITC-conjugated annexin-V and propidium iodide. The samples were then analyzed using a LSR II flow cytometer (BD Biosciences) using 530 ± 25 nm (Annexin V-FITC) and 575 ± 26 nm (PI).
(§6) The subpopulations were identified according to their fluorescence: PI-low/FITC-low (live cells), PI-high/FITC-low (necrotic cells), PI-low/FITC-high (early apoptotic cells), and PI-high/FITC-high (late apoptotic cells).

In experiment [7] the test system is MCF-7 cells. Briefly: Cell morphology by light microscopy, MCF-7. The conditions noted are these: MCF-7, 10 and 25 μM, 72 h. The procedure:
as §1, §2

Experiment [8] deals with MCF-7 (breast cancer). Briefly: MTT cell viability assay, MCF-7.
Experiment [9] concerns HeLa cells. Briefly: Phosphatidylserine translocation (Annexin V-FITC/PI), HeLa. Conditions: 72 h.
From the text: as §4, §5, §6

Experiment [10] has as its system HCT-116 cells. Nature of the experiment: Phosphatidylserine translocation (Annexin V-FITC/PI), HCT-116.
From the text: as §4, §5, §6

Usually IC50 stands for the concentration at which inhibition is half-maximal. With `Cc1cc(S(=O)(=O)NC(N)=NN=C(C=Cc2ccccc2O)c2ccccc2)c(SCc2ccccc2Cl)cc1Cl` [Compound 24, 3-{4-chloro-2-[(2-chlorophenyl)methylthio]-5-methylbenzenesulfonyl}-2-[3-(2-hydroxyphenyl)-1-phenylprop-2-enylideneamino]guanidine], the “changes in cell morphology” value was “apoptotic-like changes, such as shrinkage of the cells or detachment from the surface” in experiment [1]; “apoptotic-like changes, such as shrinkage of the cells or detachment from the surface” in experiment [5]; “apoptotic-like changes, such as shrinkage of the cells or detachment from the surface” in [7]. Besides, the “cells in sub-G1 phase” value in [2] (10 μM) is 7.45%; in experiment [2] (25 μM) it was 18.07%; in [4] (HCT-116, 10 μM), 49.69%; in experiment [4] (HCT-116, 25 μM), 65.31%. For the same compound, the “effect on cell cycle distribution” value in experiment [2] (24 at 10 and 25 μM, 31 at 25 μM) is on record as “significant increase in the cell distribution in the sub-G1 phase”; in [4] (HCT-116, 72 h, 24 at 10 and 25 μM, 31 at 25 μM), “significant increase in the cell distribution in the sub-G1 phase”. Further, the “selectivity ratio, mean IC50 against cancer cells versus IC50 for HaCaT” value in experiment [3] (HaCaT versus mean of three cancer cell lines) came to 2.6. Besides, the half-inhibitory concentration (IC50) was found to be 12.7 µM in experiment [3] (Homo sapiens, mean of MCF-7, HeLa, HCT-116, MTT, 72 h, read-out: mean IC50 against three tested cell lines) and 12 ± 0.6 µM in [8] (Homo sapiens, MCF7, MTT, 72 h). For the same compound, the “induction of apoptosis (Annexin V-FITC/PI)” value in experiment [6] (MCF-7, 10 μM, 72 h) is “Induction of apoptosis”; in [10] (HCT-116, 10 μM, 72 h), “Induction of apoptosis”. Moreover, the “population of apoptotic cells (Annexin V-FITC/PI)” value is reported as “increased population of apoptotic cells” in experiment [6] (MCF-7, 72 h, 24 at 10 or 25 μM, 31 at 25 μM); “increased population of apoptotic cells” in experiment [9] (24 at 10 or 25 μM, 31 at 25 μM); “increased population of apoptotic cells” in experiment [10] (HCT-116, 72 h, 24 at 10 or 25 μM, 31 at 25 μM). The “Selectivity Index MCF-7/HaCaT” value in experiment [8] (MCF-7 versus HaCaT, from IC50 values) is recorded as 2.7. In addition, the “level of late apoptotic cells (Annexin V-FITC/PI)” value in [9] (25 μM) is recorded as “significantly increased level of late apoptotic cells”.

(Values after PMC10002375, “Synthesis of 3-(2-Alkylthio-4-chloro-5-methylbenzenesulfonyl)-2-(1-phenyl-3-arylprop-2-enylideneamino)guanidine Derivatives with Pro-Apoptotic Activity against Cancer Cells” (International Journal of Molecular Sciences, 2023).)
